Assay [1] deals with Tandem reporter (RFP-GFP-LC3) HeLa cells. Nature of the assay: Tandem reporter (RFP-GFP-LC3) assay, % of RFP puncta that are GFP positive. In kind it is cell-based. The conditions noted are these: imaged after 12 hours. The method, then: FIG. 13A-E. Validation of novel autophagy inhibitors with an independent measure of autophagic flux. (FIG. 13A) Tandem reporter (RFP-GFP-LC3) HeLa cells treated with the indicated compounds and imaged after 12 hours in RFP (middle panels) GFP (bottom panels). […] Concentrations used correspond to the lowest dose resulting in the maximum degree of colocalization between GFP and RFP puncta as calculated in (B). These are: 3 nM Bafilomycin, 1 uM Quinacrine, 50 uM 245536, and 100 uM of 254522, 45808, 234794, and 237373. (Scale bar: 50 μm) (FIG. 13B) The percentage of RFP positive puncta that are also GFP positive in tandem reporter HeLa cells was analyzed using Cell Profiler. First GFP (1a) and RFP (1b) images of the same field of cells are uploaded into Cell Profiler. Using the GFP images, nuclei are identified (2a-green outlines) and a nuclear mask (2b) is generated. […] Cellular boundries are identified (3a-purple outlines) and a cellular mask is created. […] Only puncta within this mask will be evaluated in subsequent steps. […] (FIG. 13D) Tandem reporter HeLa cells were imaged once prior to drug treatment and then treated with the lowest dose that produced the maximum response as calculated in (FIG. 13C) and imaged immediately after. […] Each point is calculated by taking the mean % of (GFP+/RFP+ puncta)/(RFP+) from 8 technical replicates. […]

In another assay the test system is Dendra2-LC3 HEK cells. The assay can be described thus: Native (green, GFP) Dendra2-LC3 intensity and puncta, phase I primary screen readout (T15/T0). Format: cell-based, human. The conditions noted are these: for GFP intensity of native Dendra2-LC3: vs DMSO. The text has this:
Conventional methods for estimating autophagy flux rely upon the assessment of LC3 or other autophagy substrates by Western blotting or immunocytochemistry (Ref. 27; herein incorporated by reference in its entirety); by their very nature, these techniques are static and limited to dead cells. Fluorescence-based methods that use tagged substrates allow visualization of autophagy within living cells, but typically require the overexpression of autophagy target proteins that may disrupt the very process they are intended to measure. To assess autophagy in human cells without compromising or interfering with the pathway, experiments were conducted during development of embodiments herein utilizing CRISPR/Cas9 genome editing (Refs. 29-30; herein incorporated by reference in their entireties) to insert the Dendra2 open reading frame into the MAP1LC3B locus (encoding LC3) of HEK cells (FIG. 2a). A mutated, nickase version of Cas9 (Cas9n) was used that is incapable of making double-stranded DNA breaks, thereby minimizing the risk of non-homologous end joining and unwanted insertions or deletions (Refs. 29, 35; herein incorporated by reference in their entireties). Two separate single guide RNAs (sgRNAs) were designed that recognize sequences just upstream and downstream of the MAP1LC3B start codon, and a homology directed repair (HDR) vector encoding the Dendra2 open reading frame flanked by 400 bp of homologous sequence surrounding the MAP1LC3B start codon (FIG. 2a). Following expression of the sgRNAs, Cas9n and the HDR in HEK cells, colonies were selected based upon green fluorescence and passaged to homogeneity (FIG. 2b). The insertion site was confirmed by DNA sequencing, PCR, and immunocytochemistry using antibodies that recognize LC3. Providing further validation of the insertion, transfection with siRNA directed against the MAP1LC3B locus elicited a significant reduction in Dendra2-LC3 protein levels as measured by western blotting and native GFP fluorescence (FIG. 2c, d). In untreated cells, Dendra2-LC3 fluorescence appears diffuse, as expected (FIG. 3a). […] Second, autophagy induction in these cells is accompanied not only by the formation of puncta, but also by relative decreases in diffuse Dendra2-LC3 fluorescence, as indicated by the model in FIG. 1.
For these studies the potent mTOR inhibitor torin1 (Ref. 36; herein incorporated by reference in its entirety) was selected as a positive control for autophagy induction, and the vacuolar ATPase inhibitor bafilomycin-A1 (Ref. 37; herein incorporated by reference in its entirety) as a positive control for autophagy inhibition. In each case, DMSO served as a vehicle (negative) control. Dendra2-LC3 was photoconverted immediately prior to drug application, and the fluorescence intensity in the green (GFP) and red (RFP) channels was measured at regular intervals for 15 h.
The Z′ value for the effect of torin1 on the normalized GFP intensity, calculated as a ratio of GFP intensity at 15 h to that at 0 h (T15/T0), was 0.63 when the assay was conducted in a 96-well format in our laboratory, and 0.56 when conducted in a 384-well format at the Center for Chemical Genomics (CCG, FIG. 3e), indicative of a robust screening platform (Ref. 38; herein incorporated by reference in its entirety). […] The false negative rate was near zero, ensuring a highly sensitive assay.
The possibility that cell death and toxicity mimics the reduction in GFP intensity that would otherwise denote autophagy induction was also addressed. To avoid confounding from toxicity, the area occupied by cells in each image is calculated using ImageJ software and used as a proxy for cell number; since all wells received the same number of cells, >25% reductions in the area occupied by cells at the end of the experiment indicates toxicity. The formation of Dendra2-LC3 puncta in each condition is scored simultaneously using the ‘analyze particles’ function in ImageJ. […]

Consider `CO/C1=C\C(C)=C\[C@@H](C)[C@@H](O)[C@@H](C)C/C(C)=C/C=C/[C@H](OC)[C@@H]([C@@H](C)[C@@H](O)[C@H](C)[C@@]2(O)C[C@@H](O)[C@H](C)[C@@H](C(C)C)O2)OC1=O` [Bafilomycin-A1, bafilomycin-A1], for which the “Lowest dose resulting in the maximum degree of colocalization between GFP and RFP puncta” value in assay [1] was determined as 3 nM. The “Effect on torin1-elicited reduction in GFP intensity” value in the assay with Dendra2-LC3 HEK cells (co-treatment with torin1) was “fully blocked”.

On to `CCC(=O)N1CCN(c2ccc(-n3c(=O)ccc4cnc5ccc(-c6cnc7ccccc7c6)cc5c43)cc2C(F)(F)F)CC1` [Torin1, torin1], for which the “Formation of Dendra2-LC3 (LC3-positive) puncta” value in the assay with Dendra2-LC3 HEK cells (FPZ 0.5 μM, torin1 1 μM) is listed as “elicits the formation of LC3-positive puncta”. Besides, the “GFP intensity of native Dendra2-LC3” value with Dendra2-LC3 HEK cells (FPZ 0.5 μM, torin1 1 μM) is “return is prevented”; in the assay on Dendra2-LC3 HEK cells (FPZ 0.5 μM, torin1 1 μM, listed as torin1), “highly significant and durable reduction”; with Dendra2-LC3 HEK cells (FPZ 0.5 μM, torin1 1 μM, listed as torin-1) it was “reduces the steady-state GFP intensity”. In addition, the “Rank among autophagy inducers in phase I” value in the assay on Dendra2-LC3 HEK cells (Prestwick and Enzo collections) is reported as “rank among the most potent inducers”.

Values taken from patent publication US10928381B2, “In vitro methods of monitoring autophagy in a human cell using a photoconvertable fluorescent protein linked biomarker” (The Regents of the University of Michigan, priority 2018, dated 2021).
